System: spontaneous contractions of the bladder
Experiment: Cystometry on anaesthetized naive rats (suppression of rhythmic spontaneous bladder contractions)
Type: in vivo, rat
Details: anaesthetized ventilated naive female rats; i.v., cumulative administration; mean of 3 experiments
Method: The cystometric investigation of naive female rats was carried out by the method of Kimura et al. (Kimura et al., 1996, Int. J. Urol. 3:218-227). The abdomen of anaesthetized ventilated rats is opened up and the ureter is tied off. The urine is drained from the kidneys. A catheter is inserted into the bladder and fixed. […] After stable starting values are reached, the test substance is administered i.v. in a cumulative manner. An influence on bladder function manifests itself via suppression of spontaneous contractions. The absence of contractions over a period of 10 min is the parameter for the suppression.
A suppression of spontaneous contractions in rats was measurable with all the substances tested.

Structure (SMILES)	Lowest dose (mean of the lowest dose at which for the first time contractions are absent over a period of 10 min)
CN(C)C[C@H]1CCCC[C@]1(F)c1cccc(O)c1.Cl [Compound 18, (+)-(1R,2R)-3-(2-Dimethylaminomethyl-1-fluoro-cyclohexyl)-phenol, hydrochloride]	0.2 (n = 3) mg/kg
CN(C)C[C@H]1CCCC[C@@H]1c1cccc(O)c1.Cl [Compound 19, (+)-(1S,2S)-3-(2-Dimethylaminomethyl-cyclohexyl)-phenol, hydrochloride]	0.1 (n = 3) mg/kg
COc1cccc(C2(O)CCCCC2CN(C)C)c1 (racemic) [Compound 23, rac-Tramadol, reference compound]	5.3 (n = 3) mg/kg
CN(C)C[C@@H]1CCCC[C@H]1c1cccc(O)c1.Cl [Compound 20, (−)-(1R,2R)-3-(2-Dimethylaminomethyl-cyclohexyl)-phenol, hydrochloride]	0.5 (n = 3) mg/kg

Reference: patent US6908944B2, “Use of 6-dimethylaminomethyl-1-phenyl-cyclohexane compounds for treatment of urinary incontinence” (Gruenenthal GmbH, priority 2000, dated 2005)
